Experimental data reported in patent US20250164468A1, “Method for Cellular Lifespan Measurement” (AGENCY FOR SCIENCE, TECHNOLOGY AND RESEARCH, priority 2022, published 2025).

Columns and labels:
Assay type in all cases: cell-based, Saccharomyces cerevisiae
[1] = tested on: prototrophic yeast strain (CEN.PK113-7D); test: Propidium iodide fluorescence-based chronological lifespan (CLS) method in yeast, incl. high-throughput screening; conditions: for Yeast CLS increase / PI intensity: 100 μM tested; for Yeast CLS increase: Yes/No call; for PI intensity: chronological age point day 7 (72 h growth = day 1), lower PI = more survival
Procedure: Chronological lifespan (CLS) experiments were conducted in 96-well plates with 200 μL yeast culture. The prototrophic wild-type yeast strain (CEN.PK113-7D) and snf1Δ deletion strains were grown in the SD medium in 96-well plates at 30° C. Saccharomyces cerevisiae BY4743 strain was grown in the SD medium supplemented with histidine (40 mg/L), leucine (160 mg/L), and uracil (40 mg/L) in 96-well plates at 30° C. For assays testing the effect of rapamycin, cellular inoculum was transferred into 96-well plates containing serially double-diluted concentrations (0 to 10 nM) of rapamycin. […] Likewise, cellular inoculum was transferred into the 96-well plates containing serially double-diluted concentrations (0-8 mM) of D-fructose, D-mannitol, D-maltose, and D-sorbitol. Cells were incubated at 30° C., and the growth was measured at different time points. […] Cell survival was quantified at various age time points by three different approaches: (i) propidium iodide fluorescence-based method, (ii) outgrowth in YPD liquid medium and (iii) spotting assay (FIG. 1).
40 μL yeast cells on different age time points were transferred into a 96-well plate different to the 96-well plate in which the CLS analysis was performed. Cells were washed and incubated in 100 μL 1×PBS with PI (5 μg/mL) for 15 minutes in the dark. Positive and negative sample control were included for quantitative analysis. Positive control (cells boiled at 100° C. for 15 min) was PI-stained and processed in the same 96-well plate. Samples without PI-stained cells served as the negative control. After incubation, cells were washed and resuspended in 100 μL PBS. The fluorescence reading of the samples (excitation at 535 nm, emission at 617 nm) and OD600 nm were measured by a microplate reader (BioTek, Winooski, Vermont, United States). The fluorescence intensity of each sample was normalized with OD600 nm. The normalized fluorescence intensity of each sample was subtracted from the background signal of the unstained negative sample. The obtained fluorescence intensity of the positive control sample (boiled dead cells) was considered 0% cell survival. […] Cell survival of different age time point samples were calculated by normalizing the fluorescence intensity with positive control sample (boiled cells).
The prototrophic yeast strain (CEN.PK113-7D) was grown in the synthetic defined medium with indicated concentrations of rapamycin in 96-well plates at 30° C. A total of 30 samples of individual rapamycin concentration was tested with DMSO control (0 nM rapamycin) for Z-factor analysis. […] The chronological lifespan of the aged cells was determined by the outgrowth method in YPD liquid medium. […] At chronological age point day 4, 3 μL culture were transferred to a second 96-well plate containing 200 μL YPD medium. […] The CLS of different concentrations of rapamycin incubated cells was determined using the propidium iodide fluorescence-based method (FIG. 2C). […] Z-factor of different concentrations of rapamycin was analyzed using the formula Z=1−[3×(standard deviation of control sample+standard deviation of rapamycin sample)/(mean of control sample−mean of rapamycin sample)].
High-throughput screening of various chemicals was tested using the same protocol for the propidium iodide fluorescence-based method as described above. The prototrophic yeast strain (CEN.PK113-7D) was grown in the synthetic defined medium with different chemical reagents with a single testing concentration (Table 1) in addition to eight replicates of DMSO and water controls in 96-well plates at 30° C.

[2] = tested on: prototrophic yeast strain (CEN.PK113-7D); test: Yeast outgrowth in YPD liquid medium (CLS of aged cells); conditions: 100 μM tested; outgrowth OD600 nm in YPD after 24 h, age point day 14
Procedure: This quantification was performed by using the formula,
The CLS of the aged cells was further determined by the yeast outgrowth in YPD liquid medium method as described above. […] At chronological age point day 14, 3-μL of culture were transferred to a second 96-well plate containing 200 μL YPD medium.

[3] = tested on: prototrophic yeast strain (CEN.PK113-7D); test: Yeast cell growth (OD600 nm) with rapamycin in SD medium
Procedure: Chronological lifespan (CLS) experiments were conducted in 96-well plates with 200 μL yeast culture. The prototrophic wild-type yeast strain (CEN.PK113-7D) and snf1Δ deletion strains were grown in the SD medium in 96-well plates at 30° C. Saccharomyces cerevisiae BY4743 strain was grown in the SD medium supplemented with histidine (40 mg/L), leucine (160 mg/L), and uracil (40 mg/L) in 96-well plates at 30° C. For assays testing the effect of rapamycin, cellular inoculum was transferred into 96-well plates containing serially double-diluted concentrations (0 to 10 nM) of rapamycin. For calorie restriction assay, cellular inoculums were prepared in SD medium containing 2% w/v, 0.5% w/v, and 0.25% w/v glucose and transferred to 96-well plates. […] Cells were incubated at 30° C., and the growth was measured at different time points. […] Cell survival was quantified at various age time points by three different approaches: (i) propidium iodide fluorescence-based method, (ii) outgrowth in YPD liquid medium and (iii) spotting assay (FIG. 1).
The effect of rapamycin on the CLS of a yeast strain was studied to examine the validity of the inventive protocol. […] Cells were aged with different concentrations of rapamycin in the SD medium and their respective growth at different time points (24 hours, 48 hours and 72 hours) were measured. […]

OC[C@H]1O[C@H](CO)[C@@H](O)[C@@H]1O [2,5-anhydromannitol, 2,5-anhydro-D-mannitol]
extension of CLS of yeasts ([1]; screen, PI method): extend the CLS of yeasts

O=C(O)[C@@H]1CCCN1 [I-pyrrolidine-2-carboxylic acid]
Outgrowth [2]: 0.1 | Yeast CLS increase [1]: No | PI intensity [1]: 80,551.7

CO[C@H]1C[C@@H]2CC[C@@H](C)[C@@](O)(O2)C(=O)C(=O)N2CCCC[C@H]2C(=O)O[C@H]([C@H](C)C[C@@H]2CC[C@@H](O)[C@H](OC)C2)CC(=O)[C@H](C)/C=C(\C)[C@@H](O)[C@@H](OC)C(=O)[C@H](C)C[C@H](C)/C=C/C=C/C=C/1C [Rapamycin]
time to cell growth saturation ([3]; 5 nM or less rapamycin): approximately 24 hours | time to cell growth saturation ([3]; 10 nM rapamycin (slowed cell growth)): 48 h | survival of aged cells ([1]; 5 nM and 10 nM, day 4 (without rapamycin approx. 50%)): approximately 75% | survival of aged cells ([1]; day 7 (without rapamycin less than 20%)): approximately 70%

O=C(Oc1nc2[nH]c(=O)[nH]c(=O)c2[nH]1)c1cccnc1 [Xanthinol Nicotinate]
Yeast CLS increase [1]: No

Aliskiren (hemiumarate)
PI intensity [1]: 73,607.3
